Measurements as given in ChEMBL document CHEMBL1697692, “Developing structure-activity relationships for the prediction of hepatotoxicity” (Chem Res Toxicol, 2010).
Numbered stars: 1 amine (or outer) side, 2 acyl side, 3 side chain; on linkers, the order of the positions; unused ones are H or OH. Bridge positions count the residues as written; N and C are the ends. Square brackets hold non-standard residues; d marks the D form. Peptide text beside a SMILES is read from it. Adda = CO[C@@H](Cc1ccccc1)[C@@H](C)/C=C(C)/C=C/[C@H](N[*:1])[C@H](C)C(=O)[*:2]; dAsp(3S-Me) = C[C@H](C(=O)[*:3])[C@@H](N[*:1])C(=O)[*:2]; d(γGlu) = O=C(O)[C@@H](CCC(=O)[*:2])N[*:1]; NMeDha = C=C(NC)C(=O)O

System: Hepatotoxicity
Test: Literature-mined public compounds from Greene et al multi-species hepatotoxicity modelling dataset

| Structure (SMILES) | Hepatotoxicity |
| --- | --- |
| CN1CCCCC1CCN1c2ccccc2Sc2ccc([S+](C)[O-])cc21.O=S(=O)(O)c1ccccc1 (stereo unspecified) [MESORIDAZINE BESYLATE] | HH: Evidence of human hepatotoxicity |
| C#C[C@]1(O)CC[C@H]2[C@@H]3CCc4cc(OC)ccc4[C@H]3CC[C@@]21C [MESTRANOL] | HH: Evidence of human hepatotoxicity |
| CC(=O)Nc1cccc(O)c1 [METACETAMOL] | WE: Weak evidence (<10 case reports) of human hepatotoxicity |
| CC(C)NCC(O)c1cc(O)cc(O)c1.CC(C)NCC(O)c1cc(O)cc(O)c1.O=S(=O)(O)O (stereo unspecified) [METAPROTERENOL SULFATE] | HH: Evidence of human hepatotoxicity |
| CN(C)C(=N)N=C(N)N [METFORMIN] | WE: Weak evidence (<10 case reports) of human hepatotoxicity |
| C=C1c2cccc(O)c2C(=O)C2=C(O)[C@]3(O)C(=O)C(C(N)=O)=C(O)[C@@H](N(C)C)[C@@H]3[C@@H](O)[C@H]12.Cl [METHACYCLINE HYDROCHLORIDE] | HH: Evidence of human hepatotoxicity |
| CN(Cc1cnc2nc(N)nc(N)c2n1)c1ccc(C(=O)N[C@@H](CCC(=O)O)C(=O)O)cc1 [METHOTREXATE] | HH: Evidence of human hepatotoxicity |
| COc1ccc(OC)c(C(O)C(C)N)c1.Cl (stereo unspecified) [METHOXAMINE HYDROCHLORIDE] | NE: No evidence of hepatotoxicity in any species |
| COCC(=O)O [METHOXYACETIC ACID] | AH: Evidence for animal hepatotoxicity but not tested in humans |
| C[C@](N)(Cc1ccc(O)c(O)c1)C(=O)O [METHYLDOPA] | HH: Evidence of human hepatotoxicity |
| CC[C@@H](CO)NC(=O)[C@@H]1C=C2c3cccc4[nH]cc(c34)C[C@H]2N(C)C1.O=C(O)/C=C\C(=O)O [METHYLERGONOVINE MALEATE] | NE: No evidence of hepatotoxicity in any species |
| COC(=O)C(c1ccccc1)C1CCCCN1 (stereo unspecified) [METHYLPHENIDATE] | HH: Evidence of human hepatotoxicity |
| CC[C@@H](CO)NC(=O)[C@@H]1C=C2c3cccc4c3c(cn4C)C[C@H]2N(C)C1.O=C(O)/C=C\C(=O)O [METHYSERGIDE MALEATE] | NE: No evidence of hepatotoxicity in any species |
| Cc1ccccc1N1C(=O)c2cc(S(N)(=O)=O)c(Cl)cc2NC1C (stereo unspecified) [METOLAZONE] | HH: Evidence of human hepatotoxicity |
| Cc1ncc([N+](=O)[O-])n1CCO [METRONIDAZOLE] | HH: Evidence of human hepatotoxicity |
| CC1(C)S[C@@H]2[C@H](NC(=O)[C@H](NC(=O)N3CCN(S(C)(=O)=O)C3=O)c3ccccc3)C(=O)N2[C@H]1C(=O)[O-].[Na+] [MEZLOCILLIN SODIUM] | HH: Evidence of human hepatotoxicity |
| CN1CCN2c3ccccc3Cc3ccccc3C2C1 (stereo unspecified) [MIANSERIN] | HH: Evidence of human hepatotoxicity |
| COCC(=O)O[C@]1(CCN(C)CCCc2nc3ccccc3[nH]2)CCc2cc(F)ccc2[C@@H]1C(C)C [MIBEFRADIL] | NE: No evidence of hepatotoxicity in any species |
| Clc1ccc(COC(Cn2ccnc2)c2ccc(Cl)cc2Cl)c(Cl)c1 (stereo unspecified) [MICONAZOLE] | NE: No evidence of hepatotoxicity in any species |
| C=C1C(=O)N[C@H](C)C(=O)N[C@@H](CC(C)C)C(=O)N[C@@H](C(=O)O)[C@H](C)C(=O)N[C@@H](CCCNC(=N)N)C(=O)N[C@@H](/C=C/C(C)=C/[C@H](C)[C@H](Cc2ccccc2)OC)[C@H](C)C(=O)N[C@@H](C(=O)O)CCC(=O)N1C [MICROCYSTIN-LR] (R[Adda][d(γGlu)][NMeDha][dA]L[dAsp(3S-Me)]-OH; lactam N-7) | AH: Evidence for animal hepatotoxicity but not tested in humans |
| CN(C)c1ccc(O)c2c1C[C@H]1C[C@H]3[C@H](N(C)C)C(O)=C(C(N)=O)C(=O)[C@@]3(O)C(O)=C1C2=O.Cl [MINOCYCLINE HYDROCHLORIDE] | HH: Evidence of human hepatotoxicity |

| Structure (SMILES) | Hepatotoxicity |
| --- | --- |
| Cl.Cl.O=C1c2c(O)ccc(O)c2C(=O)c2c(NCCNCCO)ccc(NCCNCCO)c21 [MITOXANTRONE HYDROCHLORIDE] | HH: Evidence of human hepatotoxicity |
| CCc1c(C)[nH]c2c1C(=O)C(CN1CCOCC1)CC2.Cl (stereo unspecified) [MOLINDONE HYDROCHLORIDE] | HH: Evidence of human hepatotoxicity |
| C[C@@H]1C[C@H]2[C@@H]3CCC4=CC(=O)C=C[C@]4(C)[C@@]3(Cl)[C@@H](O)C[C@]2(C)[C@@]1(OC(=O)c1ccco1)C(=O)CCl [MOMETASONE FUROATE] | NE: No evidence of hepatotoxicity in any species |
| C[C@H]1C(=O)O[C@@H]2CCN3CC=C(COC(=O)[C@](C)(O)[C@]1(C)O)[C@H]23 [MONOCROTALINE] | AH: Evidence for animal hepatotoxicity but not tested in humans |
| CC(C)(O)c1ccccc1CC[C@@H](SCC1(CC(=O)O)CC1)c1cccc(/C=C/c2ccc3ccc(Cl)cc3n2)c1 [MONTELUKAST] | WE: Weak evidence (<10 case reports) of human hepatotoxicity |
| CCOC(=O)Nc1ccc2c(c1)N(C(=O)CCN1CCOCC1)c1ccccc1S2.Cl [MORICIZINE HYDROCHLORIDE] | HH: Evidence of human hepatotoxicity |
| CO[C@@]1(NC(=O)C(C(=O)[O-])c2ccc(O)cc2)C(=O)N2C(C(=O)[O-])=C(CSc3nnnn3C)CO[C@@H]21.[Na+].[Na+] (stereo partly specified) [MOXALACTAM DISODIUM] | NE: No evidence of hepatotoxicity in any species |
| CN(C)N=O [N-NITROSODIMETHYLAMINE] | AH: Evidence for animal hepatotoxicity but not tested in humans |
| CC(C)(C)NCC(O)COc1cccc2c1CC(O)C(O)C2 (stereo unspecified) [NADOLOL] | NE: No evidence of hepatotoxicity in any species |
| CCOc1ccc2ccccc2c1C(=O)N[C@@H]1C(=O)N2[C@@H]1SC(C)(C)[C@@H]2C(=O)[O-].O.[Na+] [NAFCILLIN SODIUM] | WE: Weak evidence (<10 case reports) of human hepatotoxicity |
| CCn1cc(C(=O)O)c(=O)c2ccc(C)nc21 [NALIDIXIC ACID] | HH: Evidence of human hepatotoxicity |
| O=C1CC[C@@]2(O)[C@H]3Cc4ccc(O)c5c4[C@@]2(CCN3CC2CC2)[C@H]1O5 [NALTREXONE] | HH: Evidence of human hepatotoxicity |
| COc1ccc2cc([C@H](C)C(=O)O)ccc2c1 [NAPROXEN] | WE: Weak evidence (<10 case reports) of human hepatotoxicity |
| CCc1nn(CCCN2CCN(c3cccc(Cl)c3)CC2)c(=O)n1CCOc1ccccc1 [NEFAZODONE] | HH: Evidence of human hepatotoxicity |
| COC(=O)C1=C(C)NC(C)=C(C(=O)OCCN(C)Cc2ccccc2)C1c1cccc([N+](=O)[O-])c1.Cl (stereo unspecified) [NICARDIPINE HYDROCHLORIDE] | HH: Evidence of human hepatotoxicity |
| COC(=O)C1=C(C)NC(C)=C(C(=O)OC)C1c1ccccc1[N+](=O)[O-] [NIFEDIPINE] | HH: Evidence of human hepatotoxicity |
| COCCOC(=O)C1=C(C)NC(C)=C(C(=O)OC(C)C)C1c1cccc([N+](=O)[O-])c1 (stereo unspecified) [NIMODIPINE] | HH: Evidence of human hepatotoxicity |
| COC(=O)C1=C(C)NC(C)=C(C(=O)OCC(C)C)C1c1ccccc1[N+](=O)[O-] (stereo unspecified) [NISOLDIPINE] | NE: No evidence of hepatotoxicity in any species |
| O=C1CN(/N=C/c2ccc([N+](=O)[O-])o2)C(=O)N1 [NITROFURANTOIN] | HH: Evidence of human hepatotoxicity |
| COC(=O)Nc1nc2ccc(C(=O)c3cccs3)cc2[nH]1 [NOCODAZOLE] | NE: No evidence of hepatotoxicity in any species |
